From the supplement of paper PMC10627819

Tests used:
Settings in all cases: main component drawn
S. aureus DSM 20231 [1] = assay: fitness (endpoint OD595 vs no drug) (fraction); higher = more growth
Outline: (§1)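 Fitness is computed from the optical density at which cultures reach stationary phase, divided by the robust mean of no-drug control wells. Any value above 1 is set to 1. Cultures started at OD595 0.01 in 384-well plates with TSB, LB Lennox or CY at 37 °C, and OD595 was read every 30 min for 14 h against a first-reading background.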

S. aureus Newman [2] = assay: as above
Outline: as §1

B. subtilis 168 = assay: Bliss interaction score (quartile over a dose matrix) (fitness difference); higher = more antagonism (negative = synergy)
Outline: (§2)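 Quartiles of the Bliss score were taken over technical, biological and donor/recipient replicates. That score is observed fitness minus the product of the single-drug fitness values, which were inferred from combination data. Fitness itself is OD595 at entry into stationary phase divided by the plate's robust no-drug mean, with a cap at 1.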

S. aureus DSM 20231 [3] = assay: as above
Outline: as §2

S. aureus Newman [4] = assay: as above
Outline: as §2

S. pneumoniae D39V = assay: as above
Outline: as §2

[5] = first compound 0.1562 µg/mL, partner 0.5 µg/mL, one replicate
[6] = first compound 0.1562 µg/mL, partner 1 µg/mL, one replicate
[7] = first compound 0.3125 µg/mL, partner 0.5 µg/mL, one replicate
[8] = first compound 0.3125 µg/mL, partner 1 µg/mL, one replicate
[9] = first compound 0.625 µg/mL, partner 0.5 µg/mL, one replicate
[10] = first compound 0.625 µg/mL, partner 1 µg/mL, one replicate
[11] = first compound 0.1562 µg/mL, partner 0.1875 µg/mL
[12] = first compound 0.1562 µg/mL, partner 0.375 µg/mL
[13] = first compound 0.1562 µg/mL, partner 0.75 µg/mL
[14] = first compound 0.3125 µg/mL, partner 0.1875 µg/mL
[15] = first compound 0.3125 µg/mL, partner 0.375 µg/mL
[16] = first compound 0.3125 µg/mL, partner 0.75 µg/mL
[17] = first compound 0.625 µg/mL, partner 0.1875 µg/mL
[18] = first compound 0.625 µg/mL, partner 0.375 µg/mL
[19] = first compound 0.625 µg/mL, partner 0.75 µg/mL
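Throughout, for Bliss interaction score (quartile over a dose matrix): first quartile when negative (synergy) and third quartile when positive (antagonism).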

## CCCCCCCCCC(=O)N[C@H]1[C@H](Oc2c3cc4cc2Oc2ccc(cc2Cl)[C@@H](O[C@@H]2O[C@H](CO)[C@@H](O)[C@H](O)[C@H]2NC(C)=O)[C@@H]2NC(=O)[C@H](NC(=O)[C@@H]4NC(=O)[C@H]4NC(=O)[C@@H](Cc5ccc(c(Cl)c5)O3)NC(=O)[C@H](N)c3ccc(O)c(c3)Oc3cc(O)cc4c3)c3ccc(O)c(c3)-c3c(O[C@H]4O[C@H](CO)[C@@H](O)[C@H](O)[C@@H]4O)cc(O)cc3[C@@H](C(=O)O)NC2=O)O[C@H](CO)[C@@H](O)[C@@H]1O [Teicoplanin] + CC1=C\[C@@H](O)CC(=O)Cc2nc(co2)C(=O)N2CCC=C2C(=O)O[C@H](C(C)C)[C@H](C)/C=C/C(=O)NC\C=C\1 [Virginiamycin M1]
S. aureus DSM 20231 [1]; first compound 0.1562 µg/mL, partner 0.0625 µg/mL
  fitness: 0.996
S. aureus DSM 20231 [1]; first compound 0.1562 µg/mL, partner 0.125 µg/mL
  fitness: ≥ 1
S. aureus DSM 20231 [1]; first compound 0.1562 µg/mL, partner 0.25 µg/mL
  fitness: ≥ 1
S. aureus DSM 20231 [1]; [5]
  fitness: ≥ 1
S. aureus DSM 20231 [1]; [6]
  fitness: 0.864
S. aureus DSM 20231 [1]; first compound 0.3125 µg/mL, partner 0.0625 µg/mL
  fitness: ≥ 1
S. aureus DSM 20231 [1]; first compound 0.3125 µg/mL, partner 0.125 µg/mL
  fitness: ≥ 1
S. aureus DSM 20231 [1]; first compound 0.3125 µg/mL, partner 0.25 µg/mL
  fitness: ≥ 1
S. aureus DSM 20231 [1]; [7]
  fitness: ≥ 1
S. aureus DSM 20231 [1]; [8]
  fitness: 0.861
S. aureus DSM 20231 [1]; first compound 0.625 µg/mL, partner 0.0625 µg/mL
  fitness: ≥ 1
S. aureus DSM 20231 [1]; first compound 0.625 µg/mL, partner 0.125 µg/mL
  fitness: ≥ 1
S. aureus DSM 20231 [1]; first compound 0.625 µg/mL, partner 0.25 µg/mL
  fitness: ≥ 1
S. aureus DSM 20231 [1]; [9]
  fitness: ≥ 1
S. aureus DSM 20231 [1]; [10]
  fitness: ≥ 1
S. aureus Newman [2]; first compound 0.1562 µg/mL, partner 0.0625 µg/mL, one replicate
  fitness: ≥ 1
S. aureus Newman [2]; first compound 0.1562 µg/mL, partner 0.125 µg/mL, one replicate
  fitness: ≥ 1
S. aureus Newman [2]; first compound 0.1562 µg/mL, partner 0.25 µg/mL, one replicate
  fitness: ≥ 1
S. aureus Newman [2]; [5]
  fitness: 0.945
S. aureus Newman [2]; [6]
  fitness: ≥ 1
S. aureus Newman [2]; first compound 0.1562 µg/mL, partner 2 µg/mL, one replicate
  fitness: 0.876
S. aureus Newman [2]; first compound 0.3125 µg/mL, partner 0.0625 µg/mL, one replicate
  fitness: 0.97
S. aureus Newman [2]; first compound 0.3125 µg/mL, partner 0.125 µg/mL, one replicate
  fitness: ≥ 1
S. aureus Newman [2]; first compound 0.3125 µg/mL, partner 0.25 µg/mL, one replicate
  fitness: ≥ 1
S. aureus Newman [2]; [7]
  fitness: 0.989
S. aureus Newman [2]; [8]
  fitness: 0.971
S. aureus Newman [2]; first compound 0.3125 µg/mL, partner 2 µg/mL, one replicate
  fitness: 0.951
S. aureus Newman [2]; first compound 0.62 µg/mL, partner 0.0625 µg/mL, one replicate
  fitness: 0.773
S. aureus Newman [2]; first compound 0.62 µg/mL, partner 0.125 µg/mL, one replicate
  fitness: 0.784
S. aureus Newman [2]; first compound 0.62 µg/mL, partner 0.25 µg/mL, one replicate
  fitness: 0.831
S. aureus Newman [2]; first compound 0.625 µg/mL, partner 0.0625 µg/mL, one replicate
  fitness: 0.843
S. aureus Newman [2]; first compound 0.625 µg/mL, partner 0.125 µg/mL, one replicate
  fitness: 0.774
S. aureus Newman [2]; first compound 0.625 µg/mL, partner 0.25 µg/mL, one replicate
  fitness: 0.839
S. aureus Newman [2]; [9]
  fitness: ≥ 1
S. aureus Newman [2]; [10]
  fitness: ≥ 1
S. aureus Newman [2]; first compound 0.625 µg/mL, partner 2 µg/mL, one replicate
  fitness: ≥ 1
S. aureus Newman [2]; first compound 1.24 µg/mL, partner 0.0625 µg/mL, one replicate
  fitness: 0.78
S. aureus Newman [2]; first compound 1.24 µg/mL, partner 0.125 µg/mL, one replicate
  fitness: 0.764
S. aureus Newman [2]; first compound 1.24 µg/mL, partner 0.25 µg/mL, one replicate
  fitness: 0.766
S. aureus Newman [2]; first compound 2.48 µg/mL, partner 0.0625 µg/mL, one replicate
  fitness: 0.473
S. aureus Newman [2]; first compound 2.48 µg/mL, partner 0.125 µg/mL, one replicate
  fitness: 0.529
S. aureus Newman [2]; first compound 2.48 µg/mL, partner 0.25 µg/mL, one replicate
  fitness: 0.486
B. subtilis 168
  Bliss interaction score: 0.117
S. aureus DSM 20231 [3]
  Bliss interaction score: 0.101
S. aureus Newman [4]
  Bliss interaction score: 0.0746
S. pneumoniae D39V
  Bliss interaction score: 0.262

## CCCCCCCCCC(=O)N[C@H]1[C@H](Oc2c3cc4cc2Oc2ccc(cc2Cl)[C@@H](O[C@@H]2O[C@H](CO)[C@@H](O)[C@H](O)[C@H]2NC(C)=O)[C@@H]2NC(=O)[C@H](NC(=O)[C@@H]4NC(=O)[C@H]4NC(=O)[C@@H](Cc5ccc(c(Cl)c5)O3)NC(=O)[C@H](N)c3ccc(O)c(c3)Oc3cc(O)cc4c3)c3ccc(O)c(c3)-c3c(O[C@H]4O[C@H](CO)[C@@H](O)[C@H](O)[C@@H]4O)cc(O)cc3[C@@H](C(=O)O)NC2=O)O[C@H](CO)[C@@H](O)[C@@H]1O [Teicoplanin] + CN[C@H](CC(C)C)C(=O)N[C@H]1C(=O)N[C@@H](CC(N)=O)C(=O)N[C@H]2C(=O)N[C@H]3C(=O)N[C@H](C(=O)N[C@H](C(=O)O)c4cc(O)cc(O)c4-c4cc3ccc4O)[C@H](O)c3ccc(c(Cl)c3)Oc3cc2cc(c3O[C@@H]2O[C@H](CO)[C@@H](O)[C@H](O)[C@H]2O[C@H]2C[C@](C)(N)[C@H](O)[C@H](C)O2)Oc2ccc(cc2Cl)[C@H]1O [Vancomycin]
S. aureus DSM 20231 [1]; [11]
  fitness: 0.979
S. aureus DSM 20231 [1]; [12]
  fitness: 0.834
S. aureus DSM 20231 [1]; [13]
  fitness: 0.932
S. aureus DSM 20231 [1]; [14]
  fitness: ≥ 1
S. aureus DSM 20231 [1]; [15]
  fitness: ≥ 1
S. aureus DSM 20231 [1]; [16]
  fitness: ≥ 1
S. aureus DSM 20231 [1]; [17]
  fitness: ≥ 1
S. aureus DSM 20231 [1]; [18]
  fitness: 0.956
S. aureus DSM 20231 [1]; [19]
  fitness: 0.976
S. aureus Newman [2]; [11]
  fitness: ≥ 1
S. aureus Newman [2]; [12]
  fitness: ≥ 1
S. aureus Newman [2]; [13]
  fitness: 0.992
S. aureus Newman [2]; [14]
  fitness: ≥ 1
S. aureus Newman [2]; [15]
  fitness: ≥ 1
S. aureus Newman [2]; [16]
  fitness: 0.949
S. aureus Newman [2]; first compound 0.62 µg/mL, partner 0.1875 µg/mL, one replicate
  fitness: 0.814
S. aureus Newman [2]; first compound 0.62 µg/mL, partner 0.375 µg/mL, one replicate
  fitness: 0.733
S. aureus Newman [2]; first compound 0.62 µg/mL, partner 0.75 µg/mL, one replicate
  fitness: 0.734
S. aureus Newman [2]; [17]
  fitness: 0.914
S. aureus Newman [2]; [18]
  fitness: 0.881
S. aureus Newman [2]; [19]
  fitness: 0.816
S. aureus Newman [2]; first compound 1.24 µg/mL, partner 0.1875 µg/mL, one replicate
  fitness: 0.811
S. aureus Newman [2]; first compound 1.24 µg/mL, partner 0.375 µg/mL, one replicate
  fitness: 0.757
S. aureus Newman [2]; first compound 1.24 µg/mL, partner 0.75 µg/mL, one replicate
  fitness: 0.689
S. aureus Newman [2]; first compound 2.48 µg/mL, partner 0.1875 µg/mL, one replicate
  fitness: 0.418
S. aureus Newman [2]; first compound 2.48 µg/mL, partner 0.375 µg/mL, one replicate
  fitness: 0.402
S. aureus Newman [2]; first compound 2.48 µg/mL, partner 0.75 µg/mL, one replicate
  fitness: 0.148
B. subtilis 168
  Bliss interaction score: -0.0512
S. aureus DSM 20231 [3]
  Bliss interaction score: -0.0576
S. aureus Newman [4]
  Bliss interaction score: 0.0485
S. pneumoniae D39V
  Bliss interaction score: 0.0981
